Test results from ChEMBL document CHEMBL1795337, “Sulfonamides incorporating boroxazolidone moieties are potent inhibitors of the transmembrane, tumor-associated carbonic anhydrase isoforms IX and XII” (Bioorg Med Chem Lett, 2011).

Target: Carbonic anhydrase 9 (Homo sapiens, UniProt Q16790)
Description: Inhibition of human recombinant catalytic domain of carbonic anhydrase 9 preincubated for 15 mins by stopped-flow CO2 hydration assay

Compound | Ki [nM]
CCB(CC)OC(=O)[C@@H](N)CCCCNC(=S)NCCc1ccc(S(N)(=O)=O)cc1 | 9.6
CCB(CC)OC(=O)[C@@H](N)CCCCNC(=S)Nc1ccc(S(N)(=O)=O)cc1Cl | 91
CCB(CC)OC(=O)[C@@H](N)CCCCNC(=S)Nc1ccc(S(N)(=O)=O)cc1F | 89
CCB(CC)OC(=O)[C@@H](N)CCCCNC(=S)Nc1ccc(S(N)(=O)=O)cc1Br | 92
CCB(CC)OC(=O)[C@@H](N)CCCCNC(=S)Nc1ccc(S(=O)(=O)NCc2ccc(S(N)(=O)=O)cc2)cc1 | 7.7
CCB(CC)OC(=O)[C@@H](N)CCCCNC(=S)Nc1ccc(S(=O)(=O)NCCc2ccc(S(N)(=O)=O)cc2)cc1 | 9
CCB(CC)OC(=O)[C@@H](N)CCCCNC(=S)Nc1ccc(S(=O)(=O)Nc2nnc(S(N)(=O)=O)s2)cc1 | 8.6

Further lines, results first:

Ki [nM] | Compound
9.3 | CCB(CC)OC(=O)[C@@H](N)CCCCNC(=S)Nc1ccc(S(N)(=O)=O)cc1
9.5 | CCB(CC)OC(=O)[C@@H](N)CCCCNC(=S)Nc1cccc(S(N)(=O)=O)c1
9.5 | CCB(CC)OC(=O)[C@@H](N)CCCCNC(=S)NCc1ccc(S(N)(=O)=O)cc1
